What was measured:
[1] = tested on: HeLa cells; assay: Immunoprecipitation of 200-kd and 100-kd autoantigens from radiolabeled lysates of mevinolin-treated HeLa cells with patient serum; assay type: cell-based; conditions: HeLa cells pretreated for 24 hours with 10 pM mevinolin versus vehicle (DMSO) alone; FIG. 5A
Method: Given the strong association of statin use with the development of these anti-200/100-kd autoantibodies, HeLa cells were labelled with ^35S-methionine/cysteine after pretreatment for 24 hours with either 10 pM mevinolin or vehicle (DMSO) alone. To validate the protein equivalence of these lysates, immunoprecipitations were performed using antibodies against Mi-2 or PM-Scl. As anticipated, equal amounts of Mi-2 and the 5 protein components of the PM-Scl complex were detected in each lysate type.
Serum samples collected from each patient were stored at −80° C. HeLa cells cultured using standard procedures were radiolabeled for two hours with 100 μCi/ml ^35S-methionine and cysteine (MP Biomedicals, Solon, Ohio) in methionine-free and cysteine-free medium. The cells were subsequently lysed in buffer A (50 mM Tris pH 7.4, 150 mM NaCl, […], 0.5% Nonidet P40, 0.5% sodium deoxycholate, 0.1% sodium dodecyl sulfate (SDS), and a protease inhibitor cocktail). Each 10-cm dish was lysed in 1 ml buffer A and was used for 10 immunoprecipitations. Immunoprecipitations were performed by adding 1 μl of patient sera to 100 μl radiolabeled lysate and bringing the volume to 1 ml with buffer B (1% Nonidet P40, 20 mM Tris pH 7.4, 150 mM NaCl, 1 mM EDTA, and a protease inhibitor cocktail) and rotating the mix for one hour at 4° C. […]

[2] = tested on: anti-200/100 autoantibody-positive patients; assay: Treatment response (objective improvement in strength) of anti-200/100 autoantibody-positive patients with necrotizing myopathy; assay type: in vivo, human
Excerpt: Medication regimens and treatment responses (based on objective improvements in strength) were variable. The clinical characteristics of the 16 anti-200/100 autoantibody-positive patients are available. […] Six (43%) of the 14 patients experienced a relapse when immunosuppressive medication was tapered or withdrawn. Seven […] of the 14 patients are currently undergoing tapering of their immunosuppressive medications and have not experienced a relapse to date. Only 1 patient had complete tapering of immunosuppressive medications without experiencing a relapse of weakness.
Two hundred twenty-five patients with banked sera, muscle biopsy specimens available for review, and a myopathy as defined by proximal muscle weakness, elevated creatine kinase (CK)levels, myopathic electromyography (EMG) findings, muscle edema on magnetic resonance imaging (MRI), and/or features of myopathy on muscle biopsy were enrolled in a longitudinal study, approved by the Johns Hopkins Institutional Review Board, from March 2007 through December 2008. […]

[3] = tested on: human anti-HMGCR antibodies; assay: Competition immunoprecipitation: patient sera preincubated with unlabeled C-terminal HMGCR, then IP of full-length IVTT HMGCR; assay type: binding; conditions: anti-HMGCR-positive sera preincubated with increasing concentrations of unlabeled C-terminal HMGCR; FIG. 7A
Excerpt: HMG-CoA reductase is a membrane protein with a small extracellular domain, seven membrane-spanning domains, and an intracellular catalytic domain. To define the region(s) of the protein recognized by sera from patients with anti-HMGCR antibodies, 35S-methionine-labeled full-length HMGCR protein, an N-terminal fragment including the extracellular and membrane-spanning domains (aa 1-377 of SEQ ID NO: 1), and a C-terminal fragment including the intracellular portion of the molecule (aa 340-888 of SEQ ID NO: 1) were synthesized. Serum from anti-HMGCR-positive patients consistently immunoprecipitated full-length HMGCR and the C-terminal fragment, but not the N-terminal fragment (FIG. 6). When anti-HMGCR-positive sera were preincubated with increasing concentrations of unlabeled C-terminal HMGCR prior to immunoprecipitation of 35S-methionine-labeled full-length HMGCR protein, immunoprecipitation was abolished (FIG. 7A).
DNA encoding full-length human HMG-CoA reductase was purchased from Invitrogen (Carlsbad, Calif.). […]
One microliter of each patient serum was preincubated (30 minutes at 4° C. in 50 μl) with the catalytic domain of human HMG-CoA reductase (aa 426-888 of SEQ ID NO: 1) expressed as a fusion protein with glutathione S-transferase (hereinafter referred to as “C-terminal HMG-CoA reductase”; Sigma). […]

CC[C@H](C)C(=O)O[C@H]1C[C@@H](C)C=C2C=C[C@H](C)[C@H](CC[C@@H]3C[C@@H](O)CC(=O)O3)[C@H]21 [mevinolin]
increased levels of both the 200-kd and the 100-kd protein immunoprecipitated [1]: 3 fold

C[C@]12C=CC(=O)C=C1CC[C@@H]1[C@@H]2C(=O)C[C@@]2(C)[C@H]1CC[C@]2(O)C(=O)CO [prednisone]
initial response to prednisone ([2]; most patients, combination immunosuppressive therapy was required): very modest initial response

Rituximab: immunosuppressant drug
benefit as adjunct therapy ([2]; added to prednisone and azathioprine or methotrexate): helpful adjuncts

B1: C-terminal HMGCR: catalytic domain of human HMG-CoA reductase (aa 426-888 of SEQ ID NO: 1) expressed as a fusion protein with glutathione S-transferase (Sigma) (protein, UniProt P04035 426-888, looked up, fragment)
chain: SSVLVTQEPEIELPREPRPNEECLQILGNAEKGAKFLSDAEIIQLVNAKHIPAYKLETLMETHERGVSIRRQLLSKKLSEPSSLQYLPYRDYNYSLVMGACCENVIGYMPIPVGVAGPLCLDEKEFQVPMATTEGCLVASTNRGCRAIGLGGGASSRVLADGMTRGPVVRLPRACDSAEVKAWLETSEGFAVIKEAFDSTSRFARLQKLHTSIAGRNLYIRFQSRSGDAMGMNMISKGTEKALSKLHEYFPEMQILAVSGNYCTDKKPAAINWIEGRGKSVVCEAVIPAKVVREVLKTTTEAMIEVNINKNLVGSAMAGSIGGYNAHAANIVTAIYIACGQDAAQNVGSSNCITLMEASGPTNEDLYISCTMPSIEIGTVGGGTNLLPQQACLQMLGVQGACKDNPGENARQLARIVCGTVMAGELSLMAALAAGHLVKSHMIHNRSKINLQDLQGACTKKTA
modifications: GST fusion
immunoprecipitation of 35S-methionine-labeled full-length HMGCR protein [3]: abolished

Reference: US9335326B2, “Compositions and methods for characterizing a myopathy” (The Johns Hopkins University, priority 2010, dated 2016)
